In US20070270484A1, “3'-N-Substituted-3-O-Substituted Erythronolide a Derivatives” (priority 2003, published 2007):
In brackets after ≈: the same amount, converted by molar mass.

Columns and labels:
S. pneum 1275 (erm) = experiment: microbe, parasite or virus in culture; type: cell-based, streptococcus pneumoniae; settings: for Minimum Inhibitory Concentrations, S. pneum 1275 (erm): agar dilution, 18-24 hours, 35±2° C., 5% CO2, erm: ribosomal modification (mutation) erm genes; for MIC: Streptococcus pneumoniae, read-out: Minimum Inhibitory Concentrations, S. pneum 1275 (erm)
Protocol: (§1) Drug dilutions and the agar plates are prepared by NCCLS method. Inoculum is prepared by direct colony suspensions in normal saline and adjusted to 0.5 McFarland turbidity and subsequently diluted as per NCCLS guidelines in order to obtain 10^4 CFU/spot. CFU/ml of a few randomly selected cultures is performed. The cultures are replicated on the agar plates using replicator (Denley's multipoint). The plates are incubated at 35±2° C. and in 5% CO2 atmosphere (for respiratory and Haemophilus strains) for 18-24 hours at 35±2° C. Minimum inhibitory concentrations (MIC) are determined after 18-24 hours. Q. C. strains are also included in each run of the study. The cation content of Mueller Hinton agar is checked by performing disk […] of 10 μg gentamicin disk against Pseudomonas aeroginosa ATCC 27853. The zone of inhibition should fall between 16-21 mm. The concentration of drug at which there is complete disappearance of growth spot or formation of less than 10 colonies per spot is considered as MIC.

S. pneum AB 29 (erm) = experiment: microbe, parasite or virus in culture; type: cell-based, streptococcus pneumoniae; settings: for Minimum Inhibitory Concentrations, S. pneum AB 29 (erm): agar dilution, 18-24 hours, 35±2° C., 5% CO2, erm: ribosomal modification (mutation) erm genes; for MIC: Streptococcus pneumoniae, read-out: Minimum Inhibitory Concentrations, S. pneum AB 29 (erm)
Protocol: as §1

S. pneum 1294 (mef) = experiment: microbe, parasite or virus in culture; type: cell-based, streptococcus pneumoniae; settings: for Minimum Inhibitory Concentrations, S. pneum 1294 (mef): agar dilution, 18-24 hours, 35±2° C., 5% CO2, mef: efflux pump mef genes
Protocol: as §1

S. pneum AB 30 (erm) = experiment: microbe, parasite or virus in culture; type: cell-based, streptococcus pneumoniae; settings: for Minimum Inhibitory Concentrations, S. pneum AB 30 (erm): agar dilution, 18-24 hours, 35±2° C., 5% CO2, erm: ribosomal modification (mutation) erm genes; for MIC: Streptococcus pneumoniae, read-out: Minimum Inhibitory Concentrations, S. pneum AB 30 (erm)
Protocol: as §1

S. pneum AB 14 (erm) = experiment: microbe, parasite or virus in culture; type: cell-based, streptococcus pneumoniae; settings: for Minimum Inhibitory Concentrations, S. pneum AB 14 (erm): agar dilution, 18-24 hours, 35±2° C., 5% CO2, erm: ribosomal modification (mutation) erm genes
Protocol: as §1

S. pneum 1256 (erm) = experiment: microbe, parasite or virus in culture; type: cell-based, streptococcus pneumoniae; settings: for Minimum Inhibitory Concentrations, S. pneum 1256 (erm): agar dilution, 18-24 hours, 35±2° C., 5% CO2, erm: ribosomal modification (mutation) erm genes
Protocol: as §1

MoraXella MI = experiment: MIC, agar incorporation method (NCCLS agar dilution method); type: cell-based; settings: 18-24 hours, 35±2° C.; for MIC: Moraxella, read-out: Minimum Inhibitory Concentrations, MoraXella MI
Protocol: as §1

S. pneum ATCC 6303 = experiment: as above; type: cell-based, streptococcus pneumoniae; settings: 35±2° C.; for Minimum Inhibitory Concentrations, S. pneum ATCC 6303: 18-24 hours, 5% CO2; for MIC: Streptococcus pneumoniae, ATCC6303, 18-24 hours, 5% CO2, read-out: Minimum Inhibitory Concentrations, S. pneum ATCC 6303
Protocol: as §1

S. pneum AB 34 (mef) = experiment: as above; type: cell-based, streptococcus pneumoniae; settings: 18-24 hours, 35±2° C., 5% CO2, mef: efflux pump mef genes; for MIC: Streptococcus pneumoniae, read-out: Minimum Inhibitory Concentrations, S. pneum AB 34 (mef)
Protocol: as §1

S. pneum ATCC 49619 = experiment: as above; type: cell-based, streptococcus pneumoniae; settings: 35±2° C.; for Minimum Inhibitory Concentrations, S. pneum ATCC 49619: 18-24 hours, 5% CO2; for MIC: Streptococcus pneumoniae, ATCC49619, 18-24 hours, 5% CO2, read-out: Minimum Inhibitory Concentrations, S. pneum ATCC 49619
Protocol: as §1

S. pneum CS 1687 (mef) = experiment: as above; type: cell-based, streptococcus pneumoniae; settings: 18-24 hours, 35±2° C., 5% CO2, mef: efflux pump mef genes; for MIC: Streptococcus pneumoniae, read-out: Minimum Inhibitory Concentrations, S. pneum CS 1687 (mef)
Protocol: as §1

S. pneum 1251 (mef) = experiment: as above; type: cell-based, streptococcus pneumoniae; settings: 18-24 hours, 35±2° C., 5% CO2, mef: efflux pump mef genes; for MIC: Streptococcus pneumoniae, read-out: Minimum Inhibitory Concentrations, S. pneum 1251 (mef)
Protocol: as §1

H. inflenza ATCC 49247 = experiment: as above; type: cell-based, Haemophilus influenzae; settings: for Minimum Inhibitory Concentrations, H. inflenza ATCC 49247: agar dilution, 18-24 hours, 35±2° C., 5% CO2; for MIC: Haemophilus influenzae, ATCC49247, read-out: Minimum Inhibitory Concentrations, H. inflenza ATCC 49247
Protocol: Minimum inhibitory concentrations (μg/ml) were obtained for representative compounds of the invention, which are given in Table 2.
as §1

Compound	Minimum Inhibitory Concentrations, S. pneum 1275 (erm) (S. pneum 1275 (erm)) [µg/mL]	Minimum Inhibitory Concentrations, S. pneum AB 29 (erm) (S. pneum AB 29 (erm)) [µg/mL]	Minimum Inhibitory Concentrations, S. pneum 1294 (mef) (S. pneum 1294 (mef)) [µg/mL]	Minimum Inhibitory Concentrations, S. pneum AB 30 (erm) (S. pneum AB 30 (erm)) [µg/mL]	Minimum Inhibitory Concentrations, S. pneum AB 14 (erm) (S. pneum AB 14 (erm)) [µg/mL]	Minimum Inhibitory Concentrations, S. pneum 1256 (erm) (S. pneum 1256 (erm)) [µg/mL]	Minimum Inhibitory Concentrations, MoraXella MI (MoraXella MI) [µg/mL]	Minimum Inhibitory Concentrations, S. pneum ATCC 6303 (S. pneum ATCC 6303) [µg/mL]	Minimum Inhibitory Concentrations, S. pneum AB 34 (mef) (S. pneum AB 34 (mef)) [µg/mL]	Minimum Inhibitory Concentrations, S. pneum ATCC 49619 (S. pneum ATCC 49619) [µg/mL]	Minimum Inhibitory Concentrations, S. pneum CS 1687 (mef) (S. pneum CS 1687 (mef)) [µg/mL]	Minimum Inhibitory Concentrations, S. pneum 1251 (mef) (S. pneum 1251 (mef)) [µg/mL]	Minimum Inhibitory Concentrations, H. inflenza ATCC 49247 (H. inflenza ATCC 49247) [µg/mL]	other results
3-O-(2-Pyridyl)acetyl-5-O-(3′-N-desmethyl-3′-N-cyclopropylmethyl)desosaminyl-6-O-methyl erythronolide A [Compound No. 50]	>16	0.5	2	>16	>16	>16	2	0.5	>16	0.5	1	0.5	>16	–
CC[C@H]1OC(=O)[C@H](C)C(=O)[C@H](C)[C@@H](O[C@@H]2O[C@H](C)C[C@H](N(C)C)[C@H]2O)[C@](C)(OC)C[C@@H](C)C(=O)[C@H](C)[C@H]2N(CCCCn3cnc(-c4cccnc4)c3)C(=O)O[C@]12C [T, Telithromycin, reference compound]	–	–	–	–	–	–	–	–	–	–	–	–	–	MIC (S. pneum 1275 (erm)): 0.008 µg/mL (≈ 0.00985 µM); MIC (S. pneum AB 29 (erm)): 0.25 µg/mL (≈ 0.308 µM); MIC (S. pneum AB 30 (erm)): 0.25 µg/mL (≈ 0.308 µM); MIC (MoraXella MI): 0.03 µg/mL (≈ 0.0369 µM); MIC (S. pneum ATCC 6303): 0.015 µg/mL (≈ 0.0185 µM); MIC (S. pneum AB 34 (mef)): 0.125 µg/mL (≈ 0.154 µM); MIC (S. pneum ATCC 49619): 0.008 µg/mL (≈ 0.00985 µM); MIC (S. pneum CS 1687 (mef)): 0.125 µg/mL (≈ 0.154 µM); MIC (S. pneum 1251 (mef)): 0.5 µg/mL (≈ 0.616 µM); MIC (H. inflenza ATCC 49247): 2 µg/mL (≈ 2.46 µM)
3-O-(2-Fluorophenyl)acetyl-5-O-(3′-N-desmethyl-3′-N-propargyl)desosaminyl-6-O-methyl erythronolide A [Compound No. 21]	>16	>16	2	>16	>16	>16	0.25	0.5	>16	>16	0.5	0.25	>16	–
CCC1OC(=O)C(C)C(OC(=O)Cc2ccc(F)cc2)C(C)C(OC2OC(C)CC(N(C)Cc3cccc(O)c3)C2O)C(C)(OC)CC(C)C(=O)C(C)C(O)C1(C)O (centres unmarked) [Compound No. 17, 3-O-(4-Fluorophenyl)acetyl-5-O-[3′-N-desmethyl-3′-N-(3-hydroxy)benzyl] desosaminyl-6-O-methyl erythronolide A]	>16	<0.5	1	>16	>16	>16	8	<0.5	>16	<0.5	1	1	>16	–
3-O-(2-Fluorophenyl)acetyl-5-O-(3′-N-desmethyl-3′-N-allyl)desosaminyl-6-O-methyl erythronolide A [Compound No. 23]	>16	1	2	>16	>16	>16	16	2	>16	2	2	2	>16	–
CC[C@H]1OC(=O)[C@H](C)[C@@H](O[C@H]2C[C@@](C)(OC)[C@@H](O)[C@H](C)O2)[C@H](C)[C@@H](O[C@@H]2O[C@H](C)C[C@H](N(C)C)[C@H]2O)[C@](C)(OC)C[C@@H](C)C(=O)[C@H](C)[C@@H](O)[C@]1(C)O [C, Clarithromycin, reference compound]	–	–	–	–	–	–	–	–	–	–	–	–	–	MIC (S. pneum 1275 (erm)): > 16 µg/mL; MIC (S. pneum AB 29 (erm)): > 16 µg/mL; MIC (S. pneum 1294 (mef); Streptococcus pneumoniae, read-out: Minimum Inhibitory Concentrations, S. pneum 1294 (mef)): > 16 µg/mL; MIC (S. pneum AB 30 (erm)): > 16 µg/mL; MIC (S. pneum AB 14 (erm); Streptococcus pneumoniae, read-out: Minimum Inhibitory Concentrations, S. pneum AB 14 (erm)): > 16 µg/mL; MIC (S. pneum 1256 (erm); Streptococcus pneumoniae, read-out: Minimum Inhibitory Concentrations, S. pneum 1256 (erm)): > 16 µg/mL; MIC (MoraXella MI): 0.125 µg/mL (≈ 0.167 µM); MIC (S. pneum ATCC 6303): 0.008 µg/mL (≈ 0.0107 µM); MIC (S. pneum AB 34 (mef)): > 16 µg/mL; MIC (S. pneum ATCC 49619): 0.008 µg/mL (≈ 0.0107 µM); MIC (S. pneum CS 1687 (mef)): > 16 µg/mL; MIC (S. pneum 1251 (mef)): 8 µg/mL (≈ 10.7 µM); MIC (H. inflenza ATCC 49247): 8 µg/mL (≈ 10.7 µM)
C#CCN(C)C1CC(C)OC(OC2C(C)C(OC(=O)Cc3ccc(F)cc3)C(C)C(=O)OC(CC)C(C)(O)C(O)C(C)C(=O)C(C)CC2(C)OC)C1O (centres unmarked) [Compound No. 18, 3-O-(4-Fluorophenyl)acetyl-5-O-(3′-N-desmethyl-3′-N-propargyl)desosaminyl-6-O-methyl erythronolide A]	>16	1	1	>16	16	>16	16	1	1	1	1	1	>16	–
CC[C@H]1OC(=O)[C@H](C)[C@@H](O[C@H]2C[C@@](C)(OC)[C@@H](O)[C@H](C)O2)[C@H](C)[C@@H](O[C@@H]2O[C@H](C)C[C@H](N(C)C)[C@H]2O)[C@](C)(O)C[C@@H](C)C(=O)[C@H](C)[C@@H](O)[C@]1(C)O [E, erythromycin A, reference compound]	>16	>16	>16	>16	>16	>16	0.06	0.03	>16	0.008	>16	8	>16	–
